# Biological target: T1, KCNQ2 potassium channels (CHO-KCNQ2 cells) (Homo sapiens, UniProt O43526)
# T1 construct: expressed in transfected cells; host or cells: CHO cells stably expressing KCNQ2 (G418 selection in the culture medium)
# Experiment: Potassium ion channel opener activity test (FDSS/μCELL detection, FluxOR thallium flux)
# Format: cell-based
# Details: for EC50: 8 concentrations 0.045-100 μM, 3 replicate wells; for Maximum agonist rate (%): highest test concentration 100 μM, ratio of 180 s
# Description: Example A1 Potassium Ion Channel Opener Activity Test (FDSS/p CELL Detection)
# Cell preparation: CHO-KCNQ2 cells were cultured in a 175 cm^2 culture flask, and when the cell density grew to 60˜80%, the culture medium was removed and the cells were washed once with 7 mL PBS (Phosphate Buffered Saline), and then 3 mL of 0.25% Trypsin was added for digestion. After completion of digestion, 7 mL of culture medium (90% DMEM/F12+10% FBS+500 μg/mL G418) was added to neutralize, and centrifuged at 800 rpm for 3 min; the supernatant was aspirated, then 5 mL of culture medium was added to resuspend the cells, and the cells were counted.
# Cell spreading: according to the cell counting results, the density was adjusted to 3×10^4 cells/well. After standing at room temperature for 30 minutes, the cells were placed in a CO2 incubator at 37° C. overnight, and incubated for 16-18 hours to reach a cell density of about 80%.
# Fluorescent dye incubation: Cell culture solution was discarded, 80 μL/well of loading buffer was added and the cells were incubated for 60 minutes at room temperature and protected from light.
# Compound incubation: Loading buffer was discarded, 80 μL/well of prepared compound solution was added, and the cells were incubated for 20 min at room temperature and protected from light.
# Fluorescence data acquisition: Real-time fluorescence signal recording was performed using an FDSS/pCELL instrument with an excitation wavelength of 480 nm and an emission wavelength of 540 nm, and the signal was recorded once per second. 10 seconds of the baseline was recorded, then 20 μL/well of stimulation buffer was added, and the recording was continued until the end of 180 seconds.
# Loading buffer: 10 mL/plate, prepared as follows:
# Stimulation buffer: 5 mL/plate, prepared as follows:
# The above buffers were obtained from a commercially available kit called FluxOR potassium ion channel assay.
# 20 mM stock solution of compound in DMSO was prepared, 10 μL of 20 mM compound stock solution was taken into 20 μL of DMSO solution, and a 3-fold serial dilution was performed to form 8 intermediate concentrations; then the intermediate concentrations of the compounds were taken respectively into test buffer, and a 200-fold dilution was performed to obtain the final concentration to be tested, and 80 μL of compound was taken and added to the assay plate.
# The highest test concentration was 100 μM, and there was a total of8 concentrations. i.e., 100, 33.33, 11.11, 3.70, 1.23, 0.41, 0.137, 0.045 μM, respectively, with 3 replicate wells for each concentration.
# The experimental data were analyzed by Excel 2007, GraphPad Prism 5.0 software, and the ratio of 180 s was counted to calculate the agonistic effect. The compound agonistic effect was calculated by the following equation: […]
# T1 sequence (O43526 whole entry): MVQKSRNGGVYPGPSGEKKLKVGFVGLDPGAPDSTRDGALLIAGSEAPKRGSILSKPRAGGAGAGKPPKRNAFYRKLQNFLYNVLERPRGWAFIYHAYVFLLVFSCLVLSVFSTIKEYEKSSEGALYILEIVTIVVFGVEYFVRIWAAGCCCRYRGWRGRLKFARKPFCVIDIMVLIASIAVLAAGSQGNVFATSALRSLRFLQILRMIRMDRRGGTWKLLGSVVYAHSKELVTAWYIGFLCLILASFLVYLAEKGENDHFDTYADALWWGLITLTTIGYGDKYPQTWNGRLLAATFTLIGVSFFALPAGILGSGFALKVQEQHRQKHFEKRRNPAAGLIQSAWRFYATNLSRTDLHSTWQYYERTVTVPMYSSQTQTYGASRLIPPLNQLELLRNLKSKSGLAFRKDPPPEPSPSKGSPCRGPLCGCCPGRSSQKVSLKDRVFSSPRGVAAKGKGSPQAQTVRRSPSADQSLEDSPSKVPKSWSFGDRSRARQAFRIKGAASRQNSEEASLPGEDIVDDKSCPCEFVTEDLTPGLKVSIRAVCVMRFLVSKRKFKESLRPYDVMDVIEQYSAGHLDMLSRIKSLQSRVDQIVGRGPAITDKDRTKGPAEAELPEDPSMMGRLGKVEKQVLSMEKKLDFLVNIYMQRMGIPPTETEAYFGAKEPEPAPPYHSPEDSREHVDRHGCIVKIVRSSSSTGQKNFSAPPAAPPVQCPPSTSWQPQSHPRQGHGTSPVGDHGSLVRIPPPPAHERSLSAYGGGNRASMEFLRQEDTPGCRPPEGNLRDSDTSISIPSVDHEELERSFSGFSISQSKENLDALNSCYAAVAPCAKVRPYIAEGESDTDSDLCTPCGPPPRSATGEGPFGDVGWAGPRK
compound,measurement,value
Cc1cc2c(c(C)c1NC(=O)CC1(C)CC1)CN(c1ccc(F)cc1)CC2 [Compound 3001],EC50,400 nM
same,Maximum agonist rate (%),36.30%
Cc1cc2c(c(C)c1NC(=O)CC1(C)CC1)CN(c1ccc(C(F)(F)F)cc1)CC2 [Compound 3002],EC50,59 nM
same,Maximum agonist rate (%),38.96%
